The test system of experiment [1] is Rev / IIB (or RRE) region of HIV RNA. To be noted: Zapp et al., Cell, 1993; cited from earlier work.
The subject of experiment [2] is HIV-1 TAR element TAR RNA oligonucleotide. Description: Gel retardation analysis (gel mobility shift), Tat peptide-TAR RNA. The class given is binding. The following applies: Tat47-58 0.1-1.6 μM, 50 pmole TAR RNA, TK buffer, 12% non-denaturing polyacrylamide gel, FIG. 1. The procedure:
FIG. 1. Gel retardation analysis to detect peptide-RNA interactions. In 20 μl reactions containing increasing concentrations of Tat47.58 peptide (0.1 μM, 0.2 μM, 0.4 μM, 0.8 μM, 1.6 μM) 50 pmole TAR RNA oligonucleotide was added in TK buffer. The reaction mixture was then heated at 90° C. for 2 min and allowed to cool slowly to 24° C. […] of 30% glycerol was added to each sample and applied to a 12% non-denaturing polyacrylamide gel. The gel was electrophoresed using 1200 volt-hours at 4° C. in TBE Buffer. Following electrophoresis, the gel was dried and the radioactivity was quantitated with a phosphorimager. The concentration of peptide added is indicated above each lane.
Tris-potassium chloride (TK) buffer is composed of 50 mM Tris-HC1 pH 7.4, 20 mM KCl, 0.1%Triton X-100, and 0.5 mM MgCl2. Tris-borate-EDTA (TBE) buffer is composed of 45 mM Tris-borate pH 8.0, and 1 mM EDTA. […]
RNA oligonucleotides were purchased from Dharmacon, Inc, Lafayette, Colo.). […] Then 10 μl of 30% glycerol was added to each reaction tube and the entire sample was loaded onto a TBE non-denaturing polyacrylamide gel and electrophoresed at 1200-1600 volt-hours at 4° C.; The gel was exposed to an intensifying screen and radioactivity was quantitated using a Typhoon phosporimager (Molecular Dynamics).

The test system is the same in experiment [3]. Nature of the experiment: Gel retardation analysis using automated capillary electrophoresis, Tat peptide-TAR RNA. The class given is binding. The following applies: increasing concentrations of Tat peptide (0.1-1.6 μM), TK buffer, SCE9610 apparatus, FIG. 5. The method, then: FIG. 5. Gel retardation analysis to detect peptide-RNA interactions. In reactions containing increasing concentrations of Tat47-58 peptide (0.1 μM, 0.2 μM, 0.4 μM, 0.8 μM, 1.6 μM) 50 pmole TAR RNA oligonucleotide was added in TK buffer. The reaction mixture was then heated at 90° C. for 2 min and allowed to cool slowly to 24° C. The reactions were loaded onto a SCE9610 automated capillary electrophoresis apparatus (SpectruMedix; State College, Pennsylvania). The peaks correspond to the amount of free TAR RNA (“TAR”) or the Tat-TAR complex (“Tat-TAR”). The concentration of peptide added is indicated below each lane.
Tris-potassium chloride (TK) buffer is composed of 50 mM Tris-HCl pH 7.4, 20 mM KCl, 0.1% Triton X-100, and 0.5 mM MgCl2. Tris-borate-EDTA (TBE) buffer is composed of 45 mM Tris-borate pH 8.0, and 1 mM EDTA. Tris-Potassium chloride-magnesium (TKM) buffer is composed of 50 mM Tris-HCl pH 7.4, 20 mM KCl, 0.1% Triton X-100 and 5 mM MgCl2.
RNA oligonucleotides were purchased from Dharmacon, Inc. Lafayette, Colo.). 500 pmole of a 5′ fluorescein labeled oligonucleotide corresponding to the HIV-1 TAR element TAR RNA (5′-[…]-3′ (SEQ ID NO: 30); Huq et al., 1999, Nucleic Acids Research. 27:1084-1093; Hwang et al., 1999, Proc. Natl. Acad. Sci. USA 96:12997-13002) was used. […]

Experiment [4] has as its system oligonucleotide corresponding to the 16S rRNA A site. Description: Gel retardation analysis (gel mobility shift), gentamicin-16S rRNA. It counts as binding. The procedure: FIG. 2. Gentamicin interacts with an oligonucleotide corresponding to the 16S rRNA. 20 μl reactions containing increasing concentrations of gentamicin (1 ng/ml, 10 ng/ml, 100 ng/ml, 1 μg/ml, 10 μg/ml, 50 μg/ml, 500 μg/ml) were added to 50 pmole RNA oligonucleotide in TKM buffer, heated at 90° C. for 2 min and allowed to cool slowly to 24° C. Then 10 μl of 30% glycerol was added to each sample and the samples were applied to a 13.5% non-denaturing polyacrylamide gel. The gel was electrophoresed using 1200 volt-hours at 4° C. in TBE Buffer Following electrophoresis, the gel was dried and the radioactivity was quantitated using a phosphorimager. The concentration of gentamicin added is indicated above each lane.
(§1) FIG. 3. The presence of 10 pg/ml gentamicin produces a gel mobility shift in the presence of the 16S rRNA oligonucleotide. 20 μl reactions containing increasing concentrations of gentamicin (100 ng/ml, 10 ng/ml, 1 ng/ml, 100 pg/ml, and 10 pg/ml) were added to 50 pmole RNA oligonucleotide in TKM buffer were treated as described for FIG. 2.
FIG. 4. Gentamicin binding to the 16S rRNA oligonucleotide is weak in the absence of MgCl2.
Tris-potassium chloride (TK) buffer is composed of 50 mM Tris-HC1 pH 7.4, 20 mM KCl, 0.1%Triton X-100, and 0.5 mM MgCl2. Tris-borate-EDTA (TBE) buffer is composed of 45 mM Tris-borate pH 8.0, and 1 mM EDTA. Tris-Potassium chloride-magnesium (TKM) buffer is composed of 50 mM Tris-HCl pH 7.4, 20 mM KCl, 0.1% Triton X-100 and 5 mM MgCl2.
RNA oligonucleotides were purchased from Dharmacon, Inc, Lafayette, Colo.). 500 pmole of either a 5′ fluorescein labeled oligonucleotide corresponding to the 16S rRNA A site (5′-[…]-3′ (SEQ ID NO: 29); Moazed & Noller, 1987, Nature 327:389-394; Woodcock et al., 1991, EMBO J. 10:3099-3103; Yoshizawa et al., 1998, EMBO J. 17:6437-6448) or a 5′ fluorescein labeled oligonucleotide corresponding to the HIV-1 TAR element TAR RNA (5′-[…]-3′ (SEQ ID NO: 30); Huq et al., 1999, Nucleic Acids Research. 27:1084-1093; Hwang et al., 1999, Proc. Natl. Acad. Sci. USA 96:12997-13002) was 3′ labeled with 5-^32P cytidine 3′,5′-bis(phosphate) (NEN) and T4 RNA ligase (NEBiolabs) in 10% DMSO as per manufacturer's instructions. The labeled oligonucleotides were purified using G-25 Sephadex columns (Boehringer Mannheim). For Tat-TAR gel retardation reactions the method of Huq et al. (Nucleic Acids Research, 1999, 27:1084-1093) was utilized with TK buffer containing 0.5 mM MgCl2 and a 12-mer Tat peptide (YGRKKRRQRRRP (SEQ ID NO: 31); single letter amino acid code). For 16S rRNA-gentamicin reactions, the method of Huq et al. was used with TKM buffer. In 20 μl reaction volumes 50 pmoles of ^32P cytidine-labeled oligonucleotide and either gentamicin sulfate (Sigma) or the short Tat peptide (Tat47.58) in TK or TKM buffer were heated at 90° C. for 2 minutes and allow to cool to room temperature (approximately 24° C.) over 2 hours. Then 10 μl of 30% glycerol was added to each reaction tube and the entire sample was loaded onto a TBE non-denaturing polyacrylamide gel and electrophoresed at 1200-1600 volt-hours at 4° C.; The gel was exposed to an intensifying screen and radioactivity was quantitated using a Typhoon phosporimager (Molecular Dynamics).

Experiment [5] relates to HIV TAR RNA element oligonucleotide. Description: Gel mobility shift, specificity control with unrelated oligonucleotide. The class given is binding. To be noted: incubated with 10 μg/ml gentamicin, FIG. 3. The procedure:
as §1
RNA oligonucleotides were purchased from Dharmacon, Inc, Lafayette, Colo.). 500 pmole of either a 5′ fluorescein labeled oligonucleotide corresponding to the 16S rRNA A site (5′-[…]-3′ (SEQ ID NO: 29); Moazed & Noller, 1987, Nature 327:389-394; Woodcock et al., 1991, EMBO J. 10:3099-3103; Yoshizawa et al., 1998, EMBO J. 17:6437-6448) or a 5′ fluorescein labeled oligonucleotide corresponding to the HIV-1 TAR element TAR RNA (5′-[…]-3′ (SEQ ID NO: 30); Huq et al., 1999, Nucleic Acids Research. 27:1084-1093; Hwang et al., 1999, Proc. Natl. Acad. Sci. USA 96:12997-13002) was 3′ labeled with 5-^32P cytidine 3′,5′-bis(phosphate) (NEN) and T4 RNA ligase (NEBiolabs) in 10% DMSO as per manufacturer's instructions. […] Then 10 μl of 30% glycerol was added to each reaction tube and the entire sample was loaded onto a TBE non-denaturing polyacrylamide gel and electrophoresed at 1200-1600 volt-hours at 4° C.; The gel was exposed to an intensifying screen and radioactivity was quantitated using a Typhoon phosporimager (Molecular Dynamics). […]

Experiment [6] relates to 60-mer from ribosomal RNA. The following applies: Cundliffe et al., 1990; cited from earlier work.

Turning to `NC[C@@H]1O[C@H](O[C@H]2[C@@H](O)[C@H](O[C@@H]3[C@@H](O)[C@H](N)C[C@H](N)[C@H]3O[C@H]3O[C@H](CO)[C@@H](O)C[C@H]3N)O[C@@H]2CO)[C@H](N)[C@@H](O)[C@@H]1O[C@H]1O[C@H](CO)[C@@H](O)[C@H](O)[C@@H]1O` [lividomycin A], in experiment [1], the “blocking of the binding of Rev to its viral recognition element in the IIB (or RRE) region of HIV RNA” value (shortened to “blocking of the binding of Rev”) is on record as “can block the binding”.
`NC[C@@H]1O[C@H](O[C@H]2[C@@H](O)[C@H](O[C@@H]3[C@@H](O)[C@H](N)C[C@H](N)[C@H]3O[C@H]3O[C@H](CN)[C@@H](O)[C@H](O)[C@H]3N)O[C@@H]2CO)[C@H](N)[C@@H](O)[C@@H]1O` [neomycin B]: the “blocking of the binding of Rev” value in experiment [1] is given as “can block the binding”.
On to `NC[C@H]1O[C@H](O[C@H]2[C@H](O)[C@@H](O[C@H]3O[C@H](CO)[C@@H](O)[C@H](N)[C@H]3O)[C@H](N)C[C@@H]2N)[C@H](N)C[C@@H]1O` [tobramycin], for which, in experiment [1], the “blocking of the binding of Rev” value is “can block the binding”.
With YGRKKRRQRRRP [Tat47.58 peptide], the “gel mobility shift of TAR RNA oligonucleotide in the presence of the Tat peptide” value in experiment [2] is listed as “a clear shift is visible”. Moreover, the “shift of TAR RNA peak in automated capillary electrophoresis” value in experiment [3] is recorded as “a clear shift is visible”.
gentamicin: the “gentamicin concentration as low as which produces the mobility shift” value in experiment [4] (TKM buffer (5 mM MgCl2), FIG. 2) stood at 10 ng/mL. Besides, the “gentamicin concentration as low as which gel mobility shifts are produced” value in experiment [4] (TKM buffer, concentrations ranged from 100 ng/ml to 10 pg/ml, FIG. 3) stood at 10 pg/mL. Also, in experiment [4] (buffer does not contain MgCl2, FIG. 4 legend), the “gentamicin binding to the 16S rRNA oligonucleotide in the absence of MgCl2” value is “weak”. In addition, the “mobility shift when gentamicin is added after renaturation has proceeded to 75° C.” value in experiment [4] (gentamicin added after the renaturation step proceeded to 75° C.) was “a mobility shift is not produced”. Also, the “gel shift when gentamicin is added at 90° C. or 85° C.” value in experiment [4] (gentamicin present during the entire denaturation/renaturation cycle, data not shown) was “a gel shift is visualized”. The “gentamicin concentration that must be added to produce a gel shift when MgCl2 is not present” value in experiment [4] (no MgCl2 in buffer, FIG. 4) turned out to be 1 mg/mL. The “mobility shift of RNA oligonucleotide corresponding to the 16S rRNA A site” value in experiment [4] (varying concentrations of gentamicin (1 ng/ml-500 μg/ml), TKM buffer, 13.5% non-denaturing gel, FIG. 2) is recorded as “produces a mobility shift”. Also, the “gel mobility shift of unrelated oligonucleotide (HIV TAR RNA element)” value in experiment [5] was “does not result in a gel mobility shift”.
As for thiostreptone, in experiment [6], the “binding to a 60-mer from ribosomal RNA” value was “binds tightly”.
